Where two headings read alike, the source gives them in different places.
How the values were obtained:
[1] = M2.cis complex, previous work; cited from earlier work
[2] = TA98, +S9, positive control compounds
[3] = TA98, −S9, positive control compounds
[4] = TA1535, +S9, positive control compounds
[5] = TA1535, −S9, positive control compounds
[6] = TA1537, +S9, positive control compounds
[7] = TA1537, −S9, positive control compounds
[8] = TA100, +S9, positive control compounds
[9] = TA100, −S9, positive control compounds

## Nc1ccc2cc3ccccc3cc2c1 [Host 2-AA, 2-aminoanthracene]
TA98; [2]
  number of positive wells: 13/48
  significance of positive wells vs control (Fisher's exact test): +++ (p<0.001 (very strong positive, +++))
TA98; [3]
  number of positive wells: 0/48
  significance of positive wells vs control (Fisher's exact test): − (p >0.05 (negative, −))
TA1535; [4]
  number of positive wells: 9/48
  significance of positive wells vs control (Fisher's exact test): ++ (0.001<p <0.01 (strong positive, ++))
TA1535; [5]
  number of positive wells: 0/48
  significance of positive wells vs control (Fisher's exact test): − (p >0.05 (negative, −))
TA1537; [6]
  number of positive wells: 6/48
  significance of positive wells vs control (Fisher's exact test): + (0.01<p<0.05 (weak positive, +))
TA1537; [7]
  number of positive wells: 0/48
  significance of positive wells vs control (Fisher's exact test): − (p >0.05 (negative, −))
TA100; [8]
  number of positive wells: 11/48
  significance of positive wells vs control (Fisher's exact test): + (0.01<p<0.05 (weak positive, +))
TA100; [9]
  number of positive wells: 0/48
  significance of positive wells vs control (Fisher's exact test): − (p >0.05 (negative, −))

## Nc1c2ccccc2nc2ccccc12 [Host 9-AA, 9-aminoacridine]
TA98; [2]
  number of positive wells: 0/48
  significance of positive wells vs control (Fisher's exact test): − (p >0.05 (negative, −))
TA98; [3]
  number of positive wells: 0/48
  significance of positive wells vs control (Fisher's exact test): − (p >0.05 (negative, −))
TA1535; [4]
  number of positive wells: 0/48
  significance of positive wells vs control (Fisher's exact test): − (p >0.05 (negative, −))
TA1535; [5]
  number of positive wells: 0/48
  significance of positive wells vs control (Fisher's exact test): − (p >0.05 (negative, −))
TA1537; [6]
  number of positive wells: 24/48
  significance of positive wells vs control (Fisher's exact test): +++ (p<0.001 (very strong positive, +++))
TA1537; [7]
  number of positive wells: 24/48
  significance of positive wells vs control (Fisher's exact test): +++ (p<0.001 (very strong positive, +++))
TA100; [8]
  number of positive wells: 2/48
  significance of positive wells vs control (Fisher's exact test): − (p >0.05 (negative, −))
TA100; [9]
  number of positive wells: 0/48
  significance of positive wells vs control (Fisher's exact test): − (p >0.05 (negative, −))

## O=c1c(O)c(-c2ccc(O)c(O)c2)oc2cc(O)cc(O)c12 [Quercetin]
TA98; [2]
  number of positive wells: 10/48
  significance of positive wells vs control (Fisher's exact test): +++ (p<0.001 (very strong positive, +++))
TA98; [3]
  number of positive wells: 5/48
  significance of positive wells vs control (Fisher's exact test): + (0.01<p<0.05 (weak positive, +))
TA1535; [4]
  number of positive wells: 0/48
  significance of positive wells vs control (Fisher's exact test): − (p >0.05 (negative, −))
TA1535; [5]
  number of positive wells: 1/48
  significance of positive wells vs control (Fisher's exact test): − (p >0.05 (negative, −))
TA1537; [6]
  number of positive wells: 5/48
  significance of positive wells vs control (Fisher's exact test): + (0.01<p<0.05 (weak positive, +))
TA1537; [7]
  number of positive wells: 1/48
  significance of positive wells vs control (Fisher's exact test): − (p >0.05 (negative, −))
TA100; [8]
  number of positive wells: 5/48
  significance of positive wells vs control (Fisher's exact test): − (p >0.05 (negative, −))
TA100; [9]
  number of positive wells: 0/48
  significance of positive wells vs control (Fisher's exact test): − (p >0.05 (negative, −))

## CN(N=O)C(=O)N[C@H]1C(O)O[C@H](CO)[C@@H](O)[C@@H]1O (mixture of isomers) [Streptozotocin]
TA98; [2]
  number of positive wells: 0/48
  significance of positive wells vs control (Fisher's exact test): − (p >0.05 (negative, −))
TA98; [3]
  number of positive wells: 0/48
  significance of positive wells vs control (Fisher's exact test): − (p >0.05 (negative, −))
TA1535; [4]
  number of positive wells: 24/48
  significance of positive wells vs control (Fisher's exact test): +++ (p<0.001 (very strong positive, +++))
TA1535; [5]
  number of positive wells: 16/48
  significance of positive wells vs control (Fisher's exact test): +++ (p<0.001 (very strong positive, +++))
TA1537; [6]
  number of positive wells: 1/48
  significance of positive wells vs control (Fisher's exact test): − (p >0.05 (negative, −))
TA1537; [7]
  number of positive wells: 1/48
  significance of positive wells vs control (Fisher's exact test): − (p >0.05 (negative, −))
TA100; [8]
  number of positive wells: 7/48
  significance of positive wells vs control (Fisher's exact test): − (p >0.05 (negative, −))
TA100; [9]
  number of positive wells: 5/48
  significance of positive wells vs control (Fisher's exact test): + (0.01<p<0.05 (weak positive, +))

## C[C@]12N3Cc4c(c(OCCCS(=O)(=O)[O-])c5ccccc5c4OCCCS(=O)(=O)[O-])CN1C(=O)N1CN4C(=O)N5CN6C(=O)N7CN8C(=O)N9Cc%10c(c(OCCCS(=O)(=O)[O-])c%11ccccc%11c%10OCCCS(=O)(=O)[O-])CN%10C(=O)N(CN%11C(=O)N(CN%12C(=O)N(CN(C3=O)[C@]12C)[C@@H]4[C@H]%125)[C@@H]6[C@H]%117)[C@]8(C)[C@@]9%10C.[Na+].[Na+].[Na+].[Na+] [Host M2]
[1]
  Ka: 4.8e+06 M⁻¹

— patent US20230174468A1, “SULFATED PILLARARENES, METHODS OF MAKING SAME, AND USES THEREOF” (priority 2007, published 2023)
